Assay results from US8735431B2, “Active compound combinations having insecticidal properties” (priority 2003, dated 2014).

How the values were obtained:
Heliothis armigera = Heliothis armigera test (soybean shoots dipped); type: in vivo
Method: (§1) To produce a suitable preparation of active compound, 1 part by weight of active compound is mixed with the stated amounts of solvent and emulsifier, and the concentrate is diluted with emulsifier-containing water to the desired concentration.
Soybean shoots (Glycine max) are treated by being dipped into the preparation of active compound of the desired concentration and are populated with caterpillars of the cotton bollworm (Heliothis armigera) while the leaves are still moist.
(§2) After the desired period of time, the kill in % is determined. 100% means that all caterpillars have been killed; 0% means that none of the caterpillars have been killed. The determined kill ratios are entered into Colby's formula (see page 39).

[1] = tested on: Plutella xylostella, resistant strain; test: Plutella xylostella test (resistant strain); type: in vivo; settings: 0.00128 ppm, 6 d
Method: as §1
Cabbage leaves (Brassica oleracea) are treated by being dipped into the preparation of active compound of the desired concentration and are populated with caterpillars of the diamondback moth (Plutella xylostella, resistant strain) while the leaves are still moist.
as §2

[2] = tested on: Plutella xylostella, normally sensitive strain; test: Plutella xylostella test (normally sensitive strain); type: in vivo; settings: 20 ppm, 4 d
Method: as §1
Cabbage leaves (Brassica oleracea) are treated by being dipped into the preparation of active compound of the desired concentration and are populated with caterpillars of the diamondback moth (Plutella xylostella, normally sensitive strain) while the leaves are still moist.
as §2

Spodoptera exigua = Spodoptera exigua test (cabbage leaves dipped); type: in vivo; settings: 0.8 ppm
Method: as §1
Cabbage leaves (Brassica oleracea) are treated by being dipped into the preparation of active compound of the desired concentration and are populated with caterpillars of the beet army worm (Spodoptera exigua) while the leaves are still moist.
as §2

Compound	melting point [°C]	further results
emamectin [(2-9) emamectin, reference compound]		Kill rate in % after 6d found (Heliothis armigera; 0.00128 ppm): 0%; Kill rate in % after 6d found [1]: 40%
CNC(=O)c1cc(Cl)cc(C)c1NC(=O)c1cc(Cl)nn1-c1ncccc1Cl	225 to 226	
Cc1cc(Cl)cc(C(=O)NC(C)(C)C)c1NC(=O)c1cc(Br)nn1-c1ncccc1Cl	159 to 161	
CCNC(=O)c1cc(Cl)cc(Cl)c1NC(=O)c1cc(Cl)nn1-c1ncccc1Cl	206 to 208	
CC(C)NC(=O)c1cc(Br)cc(Br)c1NC(=O)c1cc(Cl)nn1-c1ncccc1Cl	197 to 199	
Cc1cc(Br)cc(C(=O)NC(C)C)c1NC(=O)c1cc(Cl)nn1-c1ncccc1Cl	152 to 153	
Cc1cc(Br)cc(C(=O)N(C)C)c1NC(=O)c1cc(C(F)(F)F)nn1-c1ncccc1Cl	207 to 208	
CNC(=O)c1cc(I)cc(C)c1NC(=O)c1cc(Cl)nn1-c1ncccc1Cl	233 to 234	
Cc1cc(I)cc(C(=O)NC(C)C)c1NC(=O)c1cc(Br)nn1-c1ncccc1Cl	191 to 192	
CCNC(=O)c1cc(I)cc(C)c1NC(=O)c1cc(C(F)(F)F)nn1-c1ncccc1Cl	199 to 200	
Cc1cc(Br)cc(C(=O)NC(C)C)c1NC(=O)c1cc(C(F)(F)F)nn1-c1ncccc1Cl	197 to 198	
CN(C)C(=O)c1cc(Br)cc(Br)c1NC(=O)c1cc(Br)nn1-c1ncccc1Cl	189 to 190	
CNC(=O)c1cc(Br)cc(Br)c1NC(=O)c1cc(Br)nn1-c1ncccc1Cl	166 to 168	
Cc1cc(Cl)cc(C(=O)NC(C)(C)C)c1NC(=O)c1cc(C(F)(F)F)nn1-c1ncccc1Cl	223 to 225	
CN(C)C(=O)c1cc(Br)cc(Br)c1NC(=O)c1cc(Cl)nn1-c1ncccc1Cl	153 to 155	
CNC(=O)c1cc(Br)cc(C)c1NC(=O)c1cc(Br)nn1-c1ncccc1Cl	147 to 149	
CNC(=O)c1cc(Br)cc(C)c1NC(=O)c1cc(C(F)(F)F)nn1-c1ncccc1Cl	222 to 223	
CCNC(=O)c1cc(Br)cc(Br)c1NC(=O)c1cc(Br)nn1-c1ncccc1Cl	196 to 197	
CC(C)(C)NC(=O)c1cc(Br)cc(Cl)c1NC(=O)c1cc(C(F)(F)F)nn1-c1ncccc1Cl	143 to 145	
CCNC(=O)c1cc(Br)cc(Br)c1NC(=O)c1cc(C(F)(F)F)nn1-c1ncccc1Cl	188 to 189	
Cc1cc(Br)cc(C(=O)NC(C)(C)C)c1NC(=O)c1cc(Cl)nn1-c1ncccc1Cl	224 to 225	
CCNC(=O)c1cc(Br)cc(Br)c1NC(=O)c1cc(Cl)nn1-c1ncccc1Cl	192 to 194	
CC(C)NC(=O)c1cc(Cl)cc(Cl)c1NC(=O)c1cc(C(F)(F)F)nn1-c1ncccc1Cl	200 to 201	
CCNC(=O)c1cc(Cl)cc(Cl)c1NC(=O)c1cc(Br)nn1-c1ncccc1Cl	214 to 215	

Compound	melting point [°C]	further results
CNC(=O)c1cc(Cl)cc(Cl)c1NC(=O)c1cc(Br)nn1-c1ncccc1Cl	245 to 246	
CCNC(=O)c1cc(Cl)cc(C)c1NC(=O)c1cc(OCC(F)(F)F)nn1-c1ncccc1Cl	205 to 207	
CC(C)(C)NC(=O)c1cc(Br)cc(Br)c1NC(=O)c1cc(Cl)nn1-c1ncccc1Cl	210 to 212	
CC(C)NC(=O)c1cc(Br)cc(Br)c1NC(=O)c1cc(Br)nn1-c1ncccc1Cl	162 to 163	
CNC(=O)c1cc(Br)cc(Br)c1NC(=O)c1cc(C(F)(F)F)nn1-c1ncccc1Cl	162 to 163	
CN(C)C(=O)c1cc(Br)cc(Br)c1NC(=O)c1cc(C(F)(F)F)nn1-c1ncccc1Cl	228 to 229	
CNC(=O)c1cc(Cl)cc(Cl)c1NC(=O)c1cc(Cl)nn1-c1ncccc1Cl	205 to 206	
CC(C)(C)NC(=O)c1cc(Br)cc(Br)c1NC(=O)c1cc(Br)nn1-c1ncccc1Cl	194 to 196	
CC(C)NC(=O)c1cc(Br)cc(Br)c1NC(=O)c1cc(C(F)(F)F)nn1-c1ncccc1Cl	192 to 193	
Cc1cc(Br)cc(C(=O)NC(C)(C)C)c1NC(=O)c1cc(Br)nn1-c1ncccc1Cl	215 to 221	
CCNC(=O)c1cc(Br)cc(C)c1NC(=O)c1cc(C(F)(F)F)nn1-c1ncccc1Cl	192 to 193	
Cc1cc(I)cc(C(=O)NC(C)C)c1NC(=O)c1cc(C(F)(F)F)nn1-c1ncccc1Cl	188 to 189	
CNC(=O)c1cc(Br)cc(C)c1NC(=O)c1cc(Cl)nn1-c1ncccc1Cl	140 to 141	
CCNC(=O)c1cc(Cl)cc(C)c1NC(=O)c1cc(Cl)nn1-c1ncccc1Cl	199 to 200	
CNC(=O)c1cc(Cl)cc(C)c1NC(=O)c1cc(OCC(F)(F)F)nn1-c1ncccc1Cl	207 to 208	
CCNC(=O)c1cc(Cl)cc(C)c1NC(=O)c1cc(C(F)(F)F)nn1-c1ncccc1Cl	163 to 164	
Cc1cc(Br)cc(C(=O)NC(C)C)c1NC(=O)c1cc(Br)nn1-c1ncccc1Cl	185 to 187	
CC(C)(C)NC(=O)c1cc(Cl)cc(Cl)c1NC(=O)c1cc(C(F)(F)F)nn1-c1ncccc1Cl	170 to 172	
O=C(NC(=O)c1ccccc1Cl)Nc1ccc(OC(F)(F)F)cc1 [(2-5) triflumuron, triflumuron, reference compound]		Kill rate in % after 6d found (Heliothis armigera; 0.8 ppm): 0%; Kill rate in % after 4d found [2]: 60%
CC(C)(C)NC(=O)c1cc(Br)cc(Br)c1NC(=O)c1cc(C(F)(F)F)nn1-c1ncccc1Cl	246 to 247	
CN(C)C(=O)c1cc(Cl)cc(Cl)c1NC(=O)c1cc(C(F)(F)F)nn1-c1ncccc1Cl	225 to 227	
Cc1cc(Br)cc(C(=O)NC(C)(C)C)c1NC(=O)c1cc(C(F)(F)F)nn1-c1ncccc1Cl	247 to 248	
COc1cccc(C(=O)NN(C(=O)c2cc(C)cc(C)c2)C(C)(C)C)c1C [(2-10) methoxyfenozide, methoxyfenozide, reference compound]		Kill rate in % after 3d found (Heliothis armigera; 4 ppm, 3 d): 0%
CC(C)NC(=O)c1cc(Cl)cc(Cl)c1NC(=O)c1cc(Cl)nn1-c1ncccc1Cl	197 to 199	

Compound	melting point [°C]	further results
CC(C)(C)NC(=O)c1cc(Cl)cc(Cl)c1NC(=O)c1cc(Cl)nn1-c1ncccc1Cl	172 to 173	
CCNC(=O)c1cc(Cl)cc(C)c1NC(=O)c1cc(Br)nn1-c1ncccc1Cl	194 to 195	
Cc1cc(I)cc(C(=O)NC(C)(C)C)c1NC(=O)c1cc(C(F)(F)F)nn1-c1ncccc1Cl	242 to 243	
CNC(=O)c1cc(Cl)cc(Cl)c1NC(=O)c1cc(C(F)(F)F)nn1-c1ncccc1Cl	155 to 157	
CC(C)(C)NC(=O)c1cc(Cl)cc(Cl)c1NC(=O)c1cc(Br)nn1-c1ncccc1Cl	179 to 180	
CNC(=O)c1cc(Cl)cc(Cl)c1NC(=O)c1cc(OCC(F)(F)F)nn1-c1ncccc1Cl	192 to 195	
CNC(=O)c1cc(I)cc(C)c1NC(=O)c1cc(C(F)(F)F)nn1-c1ncccc1Cl	199 to 200	
CN(C)C(=O)c1cc(Cl)cc(Cl)c1NC(=O)c1cc(Cl)nn1-c1ncccc1Cl	231 to 232	
CCNC(=O)c1cc(Br)cc(C)c1NC(=O)c1cc(Cl)nn1-c1ncccc1Cl	192 to 194	
Cc1cc(Cl)cc(C(=O)NC(C)(C)C)c1NC(=O)c1cc(Cl)nn1-c1ncccc1Cl	163 to 165	
Cc1cc(I)cc(C(=O)NC(C)C)c1NC(=O)c1cc(Cl)nn1-c1ncccc1Cl	189 to 190	
CNC(=O)c1cc(Br)cc(Br)c1NC(=O)c1cc(Cl)nn1-c1ncccc1Cl	188 to 190	
CC(C)NC(=O)c1cc(Cl)cc(Cl)c1NC(=O)c1cc(Br)nn1-c1ncccc1Cl	188 to 190	
CNC(=O)c1cc(I)cc(C)c1NC(=O)c1cc(Br)nn1-c1ncccc1Cl	229 to 230	
CN(C)C(=O)c1cc(Cl)cc(Cl)c1NC(=O)c1cc(Br)nn1-c1ncccc1Cl	216 to 218	
O=C(NC(=O)c1c(F)cccc1F)Nc1ccc(Oc2ccc(C(F)(F)F)cc2Cl)cc1F [(2-22) flufenoxuron, flufenoxuron, reference compound]		Kill rate in % after 6d found (Spodoptera exigua): 10%
CC(C)NC(=O)c1cc(Cl)cc(Cl)c1NC(=O)c1cc(OCC(F)(F)F)nn1-c1ncccc1Cl	232 to 235	
CCNC(=O)c1cc(I)cc(C)c1NC(=O)c1cc(Cl)nn1-c1ncccc1Cl	196 to 197	
Cc1cc(Cl)cc(C(=O)NC(C)C)c1NC(=O)c1cc(OCC(F)(F)F)nn1-c1ncccc1Cl	217 to 218	
CCNC(=O)c1cc(Cl)cc(Cl)c1NC(=O)c1cc(C(F)(F)F)nn1-c1ncccc1Cl	201 to 202	
Cc1cc(I)cc(C(=O)NC(C)(C)C)c1NC(=O)c1cc(Cl)nn1-c1ncccc1Cl	228 to 229	
CCNC(=O)c1cc(Br)cc(C)c1NC(=O)c1cc(Br)nn1-c1ncccc1Cl	194 to 196	
